Data reported in patent US7803792B2, “Quaternary ammonium compounds” (Asahi Kasei Pharma Corporation, priority 2002, dated 2010).

The molecules below were run against T1, human IBAT (Homo sapiens, UniProt Q12908) (assay: In vitro assay of temporarily expressed human IBAT transporter using Cos 7 cells (Test Example 8)). Details: Cos 7 cells temporarily expressing human IBAT; [3H] taurocholate 8 μM, 37° C., 60 minutes.
T1 construct: expressed in transfected cells; host or cells: Cos 7
T1 sequence (Q12908 1-348): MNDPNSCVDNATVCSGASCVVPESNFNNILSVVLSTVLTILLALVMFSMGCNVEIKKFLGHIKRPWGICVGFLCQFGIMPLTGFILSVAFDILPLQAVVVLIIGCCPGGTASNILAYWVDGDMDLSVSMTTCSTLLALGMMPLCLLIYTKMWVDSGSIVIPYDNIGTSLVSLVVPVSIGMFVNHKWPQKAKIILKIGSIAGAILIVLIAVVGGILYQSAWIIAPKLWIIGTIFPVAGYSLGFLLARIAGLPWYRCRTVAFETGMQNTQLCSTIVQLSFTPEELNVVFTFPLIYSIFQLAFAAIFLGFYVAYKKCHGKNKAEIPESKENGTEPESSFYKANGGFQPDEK
Assay type: cell-based
Experimental: In Vitro Assay of Compounds Which Inhibit Temporarily Expressed Human IBAT Transporter or Rat IBAT Transporter Using Cos 7 Cells
In this test example, the in vitro assay of the compounds which inhibit temporarily expressed human IBAT transporter or rat IBAT transporter using Cos cells was carried out according to the method described in Am. J. Physiol., 274, G157-169.
That is, […] Cos 7 were inoculated on a 24-well cell plate. One day later, 0.3 μg per well of cDNA of a human IBAT or a rat IBAT was transfected by using FuGENE6 (manufactured by ROCHE PHARMACEUTICAL CO., LTD.). For the assay, the cells cultured for one day after the transfection were used and the following procedure was followed. The cells were washed once with an assay buffer, Hank's buffer solution containing 25 mM glucose and with 10 mM HEPES (pH 7.4), and then the assay buffer was replaced by an assay buffer to which the test compound was added. After adding [^3H] taurocholate to a final concentration of 8 μM, the cells were incubated at 37° C. for 60 minutes. [^3H] taurocholate was allowed to be incorporated in Cos 7 cells through human IBAT or rat IBAT. The reaction was stopped by washing twice with a buffer prepared by adding 1 mM taurocholate to the assay buffer and lyzing the cells with 0.2M NaOH. Measurement of radioactivity was carried out by introducing the cell lyzate in 4 ml of liquid scintillation cocktail, stirring the mixture well, and then measuring the radioactivity by a scintillation counter.

Structure (SMILES)	IC50
CCCCC1(CCCC)CS(=O)(=O)c2ccc(N(C)C)cc2C(c2cccc(NC(=S)Nc3ccc(C[N+]45CCC(CC4)C(O)C5)cc3)c2)N1 (centres unmarked) [Example 3697]	69 nM
CCCCC1(CCCC)CS(=O)(=O)c2ccc(N(C)C)cc2C(c2cccc(NC(=S)Nc3cccc(C[N+](C)(CCC)CCC)c3)c2)N1 (centres unmarked) [Example 4243]	78 nM
CCCCC1(CCCC)CS(=O)(=O)c2ccc(N(C)C)cc2C(c2cccc(NC(=S)Nc3ccc(C[n+]4ccc(-c5ccccc5)cc4)cc3)c2)N1 (centres unmarked) [Example 3717]	30 nM
CCCCC1(CCCC)CS(=O)(=O)c2ccc(N(C)C)cc2C(c2cccc(NC(=S)Nc3cccc(C[n+]4ccc5ccccc5c4)c3)c2)N1 (centres unmarked) [Example 4600]	78 nM
CCCCC1(CCCC)CS(=O)(=O)c2ccc(N(C)C)cc2C(c2cccc(NC(=S)Nc3cccc(C[n+]4cccc5cc(C(C)C)ccc54)c3)c2)N1 (centres unmarked) [Example 4589]	46 nM
CCCCCCCCC[N+](C)(C)Cc1ccc(NC(=S)Nc2cccc(C3NC(CCCC)(CCCC)CS(=O)(=O)c4ccc(N(C)C)cc43)c2)cc1 (centres unmarked) [Example 3413]	73 nM
C=CC[N+]1(Cc2cccc(NC(=S)Nc3cccc(C4NC(CCCC)(CCCC)CS(=O)(=O)c5ccc(N(C)C)cc54)c3)c2)CCCCC1 (centres unmarked) [Example 4408]	73 nM
CCCCC1(CCCC)CS(=O)(=O)c2ccc(N(C)C)cc2C(c2cccc(NC(=S)NCCCCC[N+]34CCC(CC3)CC4)c2)N1 (centres unmarked) [Example 1433]	103 nM
CCCCC1(CCCC)CS(=O)(=O)c2ccc(N(C)C)cc2C(c2cccc(NC(=S)Nc3cccc(C[N+](C)(C)Cc4cccc(OC)c4)c3)c2)N1 (centres unmarked) [Example 4371]	74 nM
CCCCC1(CCCC)CS(=O)(=O)c2ccc(N(C)C)cc2C(c2cccc(NC(=S)Nc3ccc(C[n+]4c(C)cc(C)cc4C)cc3)c2)N1 (centres unmarked) [Example 5409]	42 nM
C=Cc1ccc(C[N+](C)(C)Cc2cccc(NC(=S)Nc3cccc(C4NC(CCCC)(CCCC)CS(=O)(=O)c5ccc(N(C)C)cc54)c3)c2)cc1 (centres unmarked) [Example 4263]	72 nM
CCCCC1(CCCC)CS(=O)(=O)c2ccc(N(C)C)cc2C(c2cccc(NC(=S)Nc3cccc(C[n+]4cccc(-c5cccs5)c4)c3)c2)N1 (centres unmarked) [Example 4543]	82 nM
CCCCC1(CCCC)CS(=O)(=O)c2ccc(N(C)C)cc2C(c2cccc(NC(=S)Nc3ccc(C[n+]4cccc(CC)c4)cc3)c2)N1 (centres unmarked) [Example 3722]	39 nM
CCCCC1(CCCC)CS(=O)(=O)c2ccc(N(C)C)cc2C(c2cccc(NC(=S)Nc3ccc(C[n+]4ccc(CCCO)cc4)cc3)c2)N1 (centres unmarked) [Example 3733]	57 nM
CCCCC1(CCCC)CS(=O)(=O)c2ccc(N(C)C)cc2C(c2cccc(NC(=S)Nc3ccc(C[n+]4ccc(CCc5ccncc5)cc4)cc3)c2)N1 (centres unmarked) [Example 3764]	80 nM
CCCCC1(CCCC)CS(=O)(=O)c2ccc(N(C)C)cc2C(c2cccc(NC(=S)Nc3ccc(C[n+]4cccc(Cl)c4)cc3)c2)N1 (centres unmarked) [Example 5418]	69 nM
CCCCC1(CCCC)CS(=O)(=O)c2ccc(N(C)C)cc2C(c2cccc(NC(=S)Nc3ccc(C[n+]4cccc5ccccc54)cc3)c2)N1 (centres unmarked) [Example 3768]	72 nM
CCCCC1(CCCC)CS(=O)(=O)c2ccc(N(C)C)cc2C(c2cccc(NC(=S)Nc3ccc(C[n+]4cccc(C(=O)c5ccccc5)c4)cc3)c2)N1 (centres unmarked) [Example 3748]	81 nM
CCC#CC[N+](C)(C)Cc1ccc(NC(=S)Nc2cccc(C3NC(CCCC)(CCCC)CS(=O)(=O)c4ccc(N(C)C)cc43)c2)cc1 (centres unmarked) [Example 3434]	71 nM
CCCCC1(CCCC)CS(=O)(=O)c2ccc(N(C)C)cc2C(c2cccc(NC(=S)Nc3ccc(C[N+]4(Cc5ccccc5)CCCC(O)C4)cc3)c2)N1 (centres unmarked) [Example 3604]	45 nM
CCCCC1(CCCC)CS(=O)(=O)c2ccc(N(C)C)cc2C(c2cccc(NC(=S)Nc3cccc(C[n+]4cc(C)cc(C)c4)c3)c2)N1 (centres unmarked) [Example 4546]	87 nM
CCCCCCCCCC[N+](C)(C)Cc1ccc(NC(=S)Nc2cccc(C3NC(CCCC)(CCCC)CS(=O)(=O)c4ccc(N(C)C)cc43)c2)cc1 (centres unmarked) [Example 3414]	88 nM
CCCCC1(CCCC)CS(=O)(=O)c2ccc(N(C)C)cc2C(c2cccc(NC(=S)Nc3ccc(C[n+]4ccc(C(N)=O)cc4)cc3)c2)N1 (centres unmarked) [Example 3754]	92 nM
CCCCC1(CCCC)CS(=O)(=O)c2ccc(N(C)C)cc2C(c2cccc(NC(=S)Nc3ccc(C[n+]4cccc(-c5ccccc5)c4)cc3)c2)N1 (centres unmarked) [Example 3724]	69 nM

Structure (SMILES)	IC50
CCCCC(CCCC)c1cc[n+](Cc2ccc(NC(=S)Nc3cccc(C4NC(CCCC)(CCCC)CS(=O)(=O)c5ccc(N(C)C)cc54)c3)cc2)cc1 (centres unmarked) [Example 3716]	89 nM
CCCCCCOC(=O)c1ccc[n+](Cc2ccc(NC(=S)Nc3cccc(C4NC(CCCC)(CCCC)CS(=O)(=O)c5ccc(N(C)C)cc54)c3)cc2)c1 (centres unmarked) [Example 3750]	75 nM
CCCCC1(CCCC)CS(=O)(=O)c2ccc(N(C)C)cc2C(c2cccc(NC(=S)Nc3ccc(C[n+]4cccc(Cc5ccccc5)c4)cc3)c2)N1 (centres unmarked) [Example 3725]	52 nM
CCCCC1(CCCC)CS(=O)(=O)c2ccc(N(C)C)cc2C(c2cccc(NC(=S)Nc3ccc(C[N+](C)(C)C(C)c4ccccc4)cc3)c2)N1 (centres unmarked) [Example 3441]	85 nM
CCCCC1(CCCC)CS(=O)(=O)c2ccc(N(C)C)cc2C(c2cccc(NC(=S)CCCCC[N+]34CCC(CC3)C(O)C4)c2)N1 (centres unmarked) [Example 3854]	28 nM
CCCCC1(CCCC)CS(=O)(=O)c2ccc(N(C)C)cc2C(c2cccc(NC(=S)Nc3ccc(C[n+]4cc(O)cc(Cl)c4)cc3)c2)N1 (centres unmarked) [Example 5417]	26 nM
CCCCC1(CCCC)CS(=O)(=O)c2ccc(N(C)C)cc2C(c2cccc(NC(=S)Nc3ccc(C[N+]4(Cc5ccccc5)CCCCC4)cc3)c2)N1 (centres unmarked) [Example 3593]	70 nM
CCCCC1(CCCC)CS(=O)(=O)c2ccc(N(C)C)cc2C(c2cccc(NC(=S)Nc3cccc(C[N+](CC)(CC)CC)c3)c2)N1 (centres unmarked) [Example 4232]	99 nM
CCCCC1(CCCC)CS(=O)(=O)c2ccc(N(C)C)cc2C(c2cccc(NC(=S)Nc3cccc(C[n+]4ccc(CCC)cc4)c3)c2)N1 (centres unmarked) [Example 4528]	91 nM
CCCCC1(CCCC)CS(=O)(=O)c2ccc(N(C)C)cc2C(c2cccc(NC(=S)Nc3ccc(C[N+]4(CC)CCCC4)cc3)c2)N1 (centres unmarked) [Example 3568]	94 nM
CCCCCCCC[N+](C)(C)Cc1ccc(NC(=S)Nc2cccc(C3NC(CCCC)(CCCC)CS(=O)(=O)c4ccc(N(C)C)cc43)c2)cc1 (centres unmarked) [Example 3412]	75 nM
CCCCC1(CCCC)CS(=O)(=O)c2ccc(N(C)C)cc2C(c2cccc(NC(=S)Nc3ccc(C[n+]4cc(C)cc(-c5ccccc5)c4)cc3)c2)N1 (centres unmarked) [Example 3730]	84 nM
CCCCC1(CCCC)CS(=O)(=O)c2ccc(N(C)C)cc2C(c2cccc(NC(=S)Nc3ccc(C[n+]4cccc5c4CCCC5)cc3)c2)N1 (centres unmarked) [Example 4221]	43 nM
CCCCC1(CCCC)CS(=O)(=O)c2ccc(N(C)C)cc2C(c2cccc(NC(=S)Nc3ccc(C[n+]4ccc(CCC)cc4)cc3)c2)N1 (centres unmarked) [Example 3711]	63 nM
CCCCC1(CCCC)CS(=O)(=O)c2ccc(N(C)C)cc2C(c2cccc(NC(=S)Nc3cccc(C[n+]4ccc(CC)cc4)c3)c2)N1 (centres unmarked) [Example 4527]	73 nM
CCCCC1(CCCC)CS(=O)(=O)c2ccc(N(C)C)cc2C(c2cccc(NC(=S)Nc3cccc(C[N+]4(C)CCN(C)CC4)c3)c2)N1 (centres unmarked) [Example 4479]	78 nM
CCCCC1(CCCC)CS(=O)(=O)c2ccc(N(C)C)cc2C(c2cccc(NC(=S)Nc3cccc(C[n+]4cccc5ccccc54)c3)c2)N1 (centres unmarked) [Example 4585]	78 nM
CCCCC1(CCCC)CS(=O)(=O)c2ccc(N(C)C)cc2C(c2cccc(NC(=S)Nc3cccc(C[n+]4cccc5cc(C)ccc54)c3)c2)N1 (centres unmarked) [Example 4587]	60 nM
C=CC[N+](C)(C)Cc1cccc(NC(=S)Nc2cccc(C3NC(CCCC)(CCCC)CS(=O)(=O)c4ccc(N(C)C)cc43)c2)c1 (centres unmarked) [Example 4246]	72 nM
CCCCC1(CCCC)CS(=O)(=O)c2ccc(N(C)C)cc2C(c2cccc(NC(=S)Nc3cccc(C[n+]4ccc(-c5ccccc5)cc4)c3)c2)N1 (centres unmarked) [Example 4534]	76 nM
CCCCC1(CCCC)CS(=O)(=O)c2ccc(N(C)C)cc2C(c2cccc(NC(=S)Nc3ccc(C[n+]4ccc(C)c(C)c4)cc3)c2)N1 (centres unmarked) [Example 3727]	66 nM
CCCCC1(CCCC)CS(=O)(=O)c2ccc(N(C)C)cc2C(c2cccc(NC(=S)Nc3ccc(C[N+]45CCC(CC4)C(=O)C5)cc3)c2)N1 (centres unmarked) [Example 3698]	72 nM
CCCCC1(CCCC)CS(=O)(=O)c2ccc(N(C)C)cc2C(c2cccc(NC(=S)Nc3cccc(C[n+]4cccc(CC)c4)c3)c2)N1 (centres unmarked) [Example 4539]	64 nM
